Values after ≈ are worked out from the molar mass of the structure shown. Active and inactive are the calls of the source. No cut-off for these calls is given here.
Legend:
[1] = system: Pseudomonas aeruginosa; test: Bactericidal activity against Pseudomonas aeruginosa MTCC 2453 assessed as inhibition of bacterial growth incubated overnight; format: functional
[2] = system: Pseudomonas aeruginosa; test: Ratio of MBC for antibacterial activity against Pseudomonas aeruginosa MTCC 2453 to MIC for bactericidal activity against Pseudomonas aeruginosa MTCC 2453; format: functional
[3] = system: Bacillus subtilis; test: Antibacterial activity against Bacillus subtilis MTCC 736 assessed as diameter of zone of inhibition at 2 times MIC incubated overnight by disk diffusion method; format: functional
[4] = system: Escherichia coli; test: Bacteriostatic activity against Escherichia coli MTCC 443 assessed as reduction in log phase of bacterial growth at 0.5 to 1 times MIC measured upto 24 hrs by absorbance based assay; format: functional, organism-based
[5] = system: Pseudomonas aeruginosa; test: Synergistic antibacterial activity against Pseudomonas aeruginosa MTCC 2453 assessed as fractional inhibitory concentration index incubated overnight in presence of ciprofloxacin by microdilution checkerboard assay; format: functional
[6] = system: Enterococcus faecalis; test: Antibacterial activity against Enterococcus faecalis MTCC 439 assessed as inhibition of bacterial growth incubated overnight by serial dilution based spectrophotometer; format: functional
[7] = system: Pseudomonas aeruginosa; test: Antibacterial activity against Pseudomonas aeruginosa MTCC 2453 assessed as diameter of zone of inhibition at 0.5 times MIC incubated overnight by disk diffusion method; format: functional
[8] = system: Bacillus subtilis; test: Synergistic antibacterial activity against Bacillus subtilis MTCC 736 assessed as inhibition of bacterial growth incubated overnight in presence of ciprofloxacin by serial dilution based spectrophotometer; format: functional
[9] = system: Escherichia coli; test: Antibacterial activity against Escherichia coli MTCC 443 assessed as diameter of zone of inhibition at 500 ug/ml by agar disk diffusion method; format: functional; conditions: read-out: DIZ
[10] = system: Salmonella typhi; test: Antibacterial activity against Salmonella typhi assessed as diameter of zone of inhibition at MIC incubated overnight by disk diffusion method; format: functional, Salmonella enterica subsp. enterica serovar Typhi
[11] = system: Enterococcus faecalis; test: Antibacterial activity against Enterococcus faecalis MTCC 439 assessed as diameter of zone of inhibition at 2 times MIC incubated overnight by disk diffusion method; format: functional
[12] = system: Staphylococcus aureus; test: Antibacterial activity against Staphylococcus aureus MTCC 902 assessed as inhibition of bacterial growth incubated overnight by serial dilution based spectrophotometer; format: functional
[13] = system: Escherichia coli; test: Antibacterial activity against Escherichia coli MTCC 443 assessed as inhibition of bacterial growth incubated overnight by serial dilution based spectrophotometer; format: functional
[14] = system: Bacillus subtilis; test: Antibacterial activity against Bacillus subtilis MTCC 736 assessed as diameter of zone of inhibition at 0.5 times MIC incubated overnight by disk diffusion method; format: functional
[15] = system: Staphylococcus aureus; test: Bacteriostatic activity against Staphylococcus aureus MTCC 902 assessed as reduction in bacterial growth at 2 times MIC measured upto 10 hrs by absorbance based assay; format: functional, organism-based
[16] = system: Salmonella typhi; test: Antibacterial activity against Salmonella typhi assessed as diameter of zone of inhibition at 2 times MIC incubated overnight by disk diffusion method; format: functional, Salmonella enterica subsp. enterica serovar Typhi
[17] = system: Bacillus subtilis; test: Ratio of MBC for antibacterial activity against Bacillus subtilis MTCC 736 to MIC for bactericidal activity against Bacillus subtilis MTCC 736; format: functional
[18] = system: Pseudomonas aeruginosa; test: Synergistic antibacterial activity against Pseudomonas aeruginosa MTCC 2453 assessed as inhibition of bacterial growth incubated overnight in presence of ciprofloxacin by serial dilution based spectrophotometer; format: functional
[19] = system: Escherichia coli; test: Bactericidal activity against Escherichia coli MTCC 443 assessed as inhibition of bacterial growth incubated overnight; format: functional
[20] = system: Bacillus subtilis; test: Antibacterial activity against Bacillus subtilis MTCC 736 assessed as inhibition of bacterial growth incubated overnight by serial dilution based spectrophotometer; format: functional
[21] = system: Staphylococcus aureus; test: Antibacterial activity against Staphylococcus aureus MTCC 902 assessed as diameter of zone of inhibition at 500 ug/ml by agar disk diffusion method; format: functional; conditions: read-out: DIZ
[22] = system: Pseudomonas aeruginosa; test: Antibacterial activity against Pseudomonas aeruginosa MTCC 2453 assessed as diameter of zone of inhibition at 500 ug/ml by agar disk diffusion method; format: functional; conditions: read-out: DIZ
[23] = system: Escherichia coli; test: Antibacterial activity against Escherichia coli MTCC 443 assessed as diameter of zone of inhibition at MIC incubated overnight by disk diffusion method; format: functional
[24] = system: Escherichia coli; test: Synergistic antibacterial activity against Escherichia coli MTCC 443 assessed as fractional inhibitory concentration index incubated overnight in presence of ciprofloxacin by microdilution checkerboard assay; format: functional
[25] = system: Pseudomonas aeruginosa; test: Antibacterial activity against Pseudomonas aeruginosa MTCC 2453 assessed as inhibition of bacterial growth incubated overnight by serial dilution based spectrophotometer; format: functional
[26] = system: Staphylococcus aureus; test: Antibacterial activity against Staphylococcus aureus MTCC 902 assessed as diameter of zone of inhibition at 0.5 times MIC incubated overnight by disk diffusion method; format: functional
[27] = system: Enterococcus faecalis; test: Antibacterial activity against Enterococcus faecalis MTCC 439 assessed as diameter of zone of inhibition at MIC incubated overnight by disk diffusion method; format: functional
[28] = system: Pseudomonas aeruginosa; test: Antibacterial activity against Pseudomonas aeruginosa MTCC 2453 assessed as diameter of zone of inhibition at MIC incubated overnight by disk diffusion method; format: functional
[29] = system: Staphylococcus aureus; test: Bacteriostatic activity against Staphylococcus aureus MTCC 902 assessed as lag phase of bacterial growth at 1 times MIC measured upto 24 hrs by absorbance based assay; format: functional, organism-based
[30] = system: Staphylococcus aureus; test: Antibacterial activity against Staphylococcus aureus MTCC 902 assessed as diameter of zone of inhibition at 2 times MIC incubated overnight by disk diffusion method; format: functional
[31] = system: Staphylococcus aureus; test: Antibacterial activity against Staphylococcus aureus MTCC 902 assessed as diameter of zone of inhibition at MIC incubated overnight by disk diffusion method; format: functional
[32] = system: Bacillus subtilis; test: Antibacterial activity against Bacillus subtilis MTCC 736 assessed as diameter of zone of inhibition at MIC incubated overnight by disk diffusion method; format: functional
[33] = system: Escherichia coli; test: Bacteriostatic activity against Escherichia coli MTCC 443 assessed as reduction in bacterial growth at 2 times MIC measured upto 10 hrs by absorbance based assay; format: functional, organism-based
[34] = system: Escherichia coli; test: Synergistic antibacterial activity against Escherichia coli MTCC 443 assessed as inhibition of bacterial growth incubated overnight in presence of ciprofloxacin by serial dilution based spectrophotometer; format: functional
[35] = system: Bacillus subtilis; test: Bactericidal activity against Bacillus subtilis MTCC 736 assessed as inhibition of bacterial growth incubated overnight; format: functional
[36] = system: Bacillus subtilis; test: Synergistic antibacterial activity against Bacillus subtilis MTCC 736 assessed as fractional inhibitory concentration index incubated overnight in presence of ciprofloxacin by microdilution checkerboard assay; format: functional
[37] = system: Escherichia coli; test: Antibacterial activity against Escherichia coli MTCC 443 assessed as diameter of zone of inhibition at 0.5 times MIC incubated overnight by disk diffusion method; format: functional
[38] = system: Bacillus subtilis; test: Antibacterial activity against Bacillus subtilis MTCC 736 assessed as diameter of zone of inhibition at 500 ug/ml by agar disk diffusion method; format: functional; conditions: read-out: DIZ
[39] = system: Enterococcus faecalis; test: Antibacterial activity against Enterococcus faecalis MTCC 439 assessed as diameter of zone of inhibition at 0.5 times MIC incubated overnight by disk diffusion method; format: functional
[40] = system: Staphylococcus aureus; test: Bacteriostatic activity against Staphylococcus aureus MTCC 902 assessed as lag phase of bacterial growth at 0.5 times MIC measured upto 24 hrs by absorbance based assay; format: functional, organism-based
[41] = system: Pseudomonas aeruginosa; test: Antibacterial activity against Pseudomonas aeruginosa MTCC 2453 assessed as diameter of zone of inhibition at 2 times MIC incubated overnight by disk diffusion method; format: functional
[42] = system: Salmonella typhi; test: Antibacterial activity against Salmonella typhi assessed as inhibition of bacterial growth incubated overnight by serial dilution based spectrophotometer; format: functional, Salmonella enterica subsp. enterica serovar Typhi; conditions: Salmonella enterica
[43] = system: Escherichia coli; test: Antibacterial activity against Escherichia coli MTCC 443 assessed as diameter of zone of inhibition at 2 times MIC incubated overnight by disk diffusion method; format: functional

## O=C1Nc2cc(Cl)ccc2/C1=N/CCNc1ccnc2cc(Cl)ccc12
[1]
  MBC: 256 µg/mL (≈ 664 µM)
[2]
  Ratio: 2
[3]
  diameter of the inhibition zone (DIZ): 10 mm
[4]
  Activity: Active
[5]
  fractional inhibitory concentration index (FICI): 1.25
[6]
  MIC: > 512 µg/mL
[7]
  diameter of the inhibition zone (DIZ): 8 mm
[8]
  MIC: 64 µg/mL
[9]
  zone of inhibition at 500 µg/mL: 12 mm
[10]
  diameter of the inhibition zone (DIZ): 7 mm
[11]
  diameter of the inhibition zone (DIZ): 8 mm
[12]
  MIC: > 512 µg/mL
[13]
  MIC: 256 µg/mL (≈ 664 µM)
[14]
  diameter of the inhibition zone (DIZ): 8 mm
[15]
  Activity: Active
[16]
  diameter of the inhibition zone (DIZ): 7 mm
[17]
  Ratio: 1
[18]
  MIC: 32 µg/mL
[19]
  MBC: > 512 µg/mL
[20]
  MIC: 256 µg/mL (≈ 664 µM)
[21]
  zone of inhibition at 500 µg/mL: 8 mm
[22]
  zone of inhibition at 500 µg/mL: 11 mm
[23]
  diameter of the inhibition zone (DIZ): 9 mm
[24]
  fractional inhibitory concentration index (FICI): 0.125
[25]
  MIC: 128 µg/mL (≈ 332 µM)
[26]
  diameter of the inhibition zone (DIZ): 8 mm
[27]
  diameter of the inhibition zone (DIZ): 8 mm
[28]
  diameter of the inhibition zone (DIZ): 9 mm
[29]
  Activity: Active
[30]
  diameter of the inhibition zone (DIZ): 8 mm
[31]
  diameter of the inhibition zone (DIZ): 8 mm
[32]
  diameter of the inhibition zone (DIZ): 11 mm
[33]
  Activity: Active
[34]
  MIC: 16 µg/mL
[35]
  MBC: 256 µg/mL (≈ 664 µM)
[36]
  fractional inhibitory concentration index (FICI): 0.75
[37]
  diameter of the inhibition zone (DIZ): 9 mm
[38]
  zone of inhibition at 500 µg/mL: 11 mm
[39]
  diameter of the inhibition zone (DIZ): 8 mm
[40]
  Activity: inactive
[41]
  diameter of the inhibition zone (DIZ): 9 mm
[42]
  MIC: > 512 µg/mL
[43]
  diameter of the inhibition zone (DIZ): 11 mm

— ChEMBL document CHEMBL6078713, “Synthesis and mechanistic studies of 4-aminoquinoline-Isatin molecular hybrids and Schiff's bases as promising antimicrobial agents” (Eur J Med Chem, 2025)
